# Measured values published in patent US7396837B2, “Antitumoral analogs of lamellarins” (Pharma Mar, S.A.U., priority 2002, dated 2008).
# Tested on: SK-MEL-28
# Assay: SRB colorimetric cell growth inhibition assay, SK-MEL-28
# Type: cell-based
# Conditions: Homo sapiens, SK-MEL-28, MEL-28; GI=growth inhibition; read-out: GI50 MEL-28
# Outline: (§1)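 Continuous drug exposure of human cancer cells; SRB protein stain read-out; triplicate wells, mean ± SD; GI, TGI, LC computed.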
row,Compound,GI50 [nM]
1,COc1cc(-c2c3c4cc(OC)c(OC(=O)[C@H](C)N)cc4oc(=O)c3n3ccc4cc(OC(=O)[C@H](C)N)c(OC)cc4c23)ccc1OC(=O)[C@H](C)N [Compound 199],32.6

# Same assay, conditions: Homo sapiens, SK-MEL-28, MEL-28; cell killing (cytotoxic effect); read-out: LC50 MEL-28
row,Compound,CC50 [nM]
1,COc1cc(-c2c3c4cc(OC)c(OC(=O)[C@H](C)N)cc4oc(=O)c3n3ccc4cc(OC(=O)[C@H](C)N)c(OC)cc4c23)ccc1OC(=O)[C@H](C)N [Compound 199],7040

# Same assay, conditions: Homo sapiens, SK-MEL-28, MEL-28; total growth inhibition (cytostatic effect); read-out: TGI MEL-28
row,Compound,IC (TGI) [nM]
1,COc1cc(-c2c3c4cc(OC)c(OC(=O)[C@H](C)N)cc4oc(=O)c3n3ccc4cc(OC(=O)[C@H](C)N)c(OC)cc4c23)ccc1OC(=O)[C@H](C)N [Compound 199],151

# Tested on: SK-BR-3
# Assay: SRB colorimetric cell growth inhibition assay, SK-BR-3
# Type: cell-based
# Conditions: Homo sapiens, SK-BR-3, SK-BR-3; GI=growth inhibition; read-out: GI50 SK-BR-3
# Outline: as §1
row,Compound,GI50 [nM]
1,COc1cc(-c2c3c4cc(OC)c(OC(=O)[C@H](C)N)cc4oc(=O)c3n3ccc4cc(OC(=O)[C@H](C)N)c(OC)cc4c23)ccc1OC(=O)[C@H](C)N [Compound 199],46.6

# Same assay, conditions: Homo sapiens, SK-BR-3, SK-BR-3; cell killing (cytotoxic effect); read-out: LC50 SK-BR-3
row,Compound,CC50 [nM]
1,COc1cc(-c2c3c4cc(OC)c(OC(=O)[C@H](C)N)cc4oc(=O)c3n3ccc4cc(OC(=O)[C@H](C)N)c(OC)cc4c23)ccc1OC(=O)[C@H](C)N [Compound 199],8280

# Same assay, conditions: Homo sapiens, SK-BR-3, SK-BR-3; total growth inhibition (cytostatic effect); read-out: TGI SK-BR-3
row,Compound,IC (TGI) [nM]
1,COc1cc(-c2c3c4cc(OC)c(OC(=O)[C@H](C)N)cc4oc(=O)c3n3ccc4cc(OC(=O)[C@H](C)N)c(OC)cc4c23)ccc1OC(=O)[C@H](C)N [Compound 199],97.4

# Tested on: K-562
# Assay: SRB colorimetric cell growth inhibition assay, K-562
# Type: cell-based
# Conditions: Homo sapiens, K562, K-562; GI=growth inhibition; read-out: GI50 K-562
# Outline: as §1
row,Compound,GI50 [nM]
1,COc1cc(-c2c3c4cc(OC)c(OC(=O)[C@H](C)N)cc4oc(=O)c3n3ccc4cc(OC(=O)[C@H](C)N)c(OC)cc4c23)ccc1OC(=O)[C@H](C)N [Compound 199],11.2

# Same assay, conditions: Homo sapiens, K562, K-562; cell killing (cytotoxic effect); read-out: LC50 K-562
row,Compound,CC50 [nM]
1,COc1cc(-c2c3c4cc(OC)c(OC(=O)[C@H](C)N)cc4oc(=O)c3n3ccc4cc(OC(=O)[C@H](C)N)c(OC)cc4c23)ccc1OC(=O)[C@H](C)N [Compound 199],281

# Same assay, conditions: Homo sapiens, K562, K-562; total growth inhibition (cytostatic effect); read-out: TGI K-562
row,Compound,IC (TGI) [nM]
1,COc1cc(-c2c3c4cc(OC)c(OC(=O)[C@H](C)N)cc4oc(=O)c3n3ccc4cc(OC(=O)[C@H](C)N)c(OC)cc4c23)ccc1OC(=O)[C@H](C)N [Compound 199],55.5

# Tested on: HeLa-APL
# Assay: SRB colorimetric cell growth inhibition assay, HeLa-APL (aplidine resistant)
# Type: cell-based
# Conditions: Homo sapiens, HELA-APL; GI=growth inhibition; read-out: GI50 HELA-APL
# Outline: as §1
row,Compound,GI50 [nM]
1,COc1cc(-c2c3c4cc(OC)c(OC(=O)[C@H](C)N)cc4oc(=O)c3n3ccc4cc(OC(=O)[C@H](C)N)c(OC)cc4c23)ccc1OC(=O)[C@H](C)N [Compound 199],71.8

# Same assay, conditions: Homo sapiens, HELA-APL; cell killing (cytotoxic effect); read-out: LC50 HELA-APL
row,Compound,CC50 [nM]
1,COc1cc(-c2c3c4cc(OC)c(OC(=O)[C@H](C)N)cc4oc(=O)c3n3ccc4cc(OC(=O)[C@H](C)N)c(OC)cc4c23)ccc1OC(=O)[C@H](C)N [Compound 199],574

# Same assay, conditions: Homo sapiens, HELA-APL; total growth inhibition (cytostatic effect); read-out: TGI HELA-APL
row,Compound,IC (TGI) [nM]
1,COc1cc(-c2c3c4cc(OC)c(OC(=O)[C@H](C)N)cc4oc(=O)c3n3ccc4cc(OC(=O)[C@H](C)N)c(OC)cc4c23)ccc1OC(=O)[C@H](C)N [Compound 199],242

# Tested on: HT-29
# Assay: SRB colorimetric cell growth inhibition assay, HT-29
# Type: cell-based
# Conditions: Homo sapiens, HT-29, HT-29; GI=growth inhibition; read-out: GI50 HT-29
# Outline: as §1
row,Compound,GI50 [nM]
1,COc1cc(-c2c3c4cc(OC)c(OC(=O)[C@H](C)N)cc4oc(=O)c3n3ccc4cc(OC(=O)[C@H](C)N)c(OC)cc4c23)ccc1OC(=O)[C@H](C)N [Compound 199],2140

# Same assay, conditions: Homo sapiens, HT-29, HT-29; cell killing (cytotoxic effect); read-out: LC50 HT-29
row,Compound,CC50 [nM]
1,COc1cc(-c2c3c4cc(OC)c(OC(=O)[C@H](C)N)cc4oc(=O)c3n3ccc4cc(OC(=O)[C@H](C)N)c(OC)cc4c23)ccc1OC(=O)[C@H](C)N [Compound 199],12200

# Same assay, conditions: Homo sapiens, HT-29, HT-29; total growth inhibition (cytostatic effect); read-out: TGI HT-29
row,Compound,IC (TGI) [nM]
1,COc1cc(-c2c3c4cc(OC)c(OC(=O)[C@H](C)N)cc4oc(=O)c3n3ccc4cc(OC(=O)[C@H](C)N)c(OC)cc4c23)ccc1OC(=O)[C@H](C)N [Compound 199],6710

# Tested on: IGROV-ET
# Assay: SRB colorimetric cell growth inhibition assay, IGROV-ET (ET-743 resistant)
# Type: cell-based
# Conditions: Homo sapiens, IGROV-ET; GI=growth inhibition; read-out: GI50 IGROV-ET
# Outline: as §1
row,Compound,GI50 [nM]
1,COc1cc(-c2c3c4cc(OC)c(OC(=O)[C@H](C)N)cc4oc(=O)c3n3ccc4cc(OC(=O)[C@H](C)N)c(OC)cc4c23)ccc1OC(=O)[C@H](C)N [Compound 199],31.3

# Same assay, conditions: Homo sapiens, IGROV-ET; cell killing (cytotoxic effect); read-out: LC50 IGROV-ET
row,Compound,CC50 [nM]
1,COc1cc(-c2c3c4cc(OC)c(OC(=O)[C@H](C)N)cc4oc(=O)c3n3ccc4cc(OC(=O)[C@H](C)N)c(OC)cc4c23)ccc1OC(=O)[C@H](C)N [Compound 199],12200

# Same assay, conditions: Homo sapiens, IGROV-ET; total growth inhibition (cytostatic effect); read-out: TGI IGROV-ET
row,Compound,IC (TGI) [nM]
1,COc1cc(-c2c3c4cc(OC)c(OC(=O)[C@H](C)N)cc4oc(=O)c3n3ccc4cc(OC(=O)[C@H](C)N)c(OC)cc4c23)ccc1OC(=O)[C@H](C)N [Compound 199],159

# Tested on: HeLa
# Assay: SRB colorimetric cell growth inhibition assay, HeLa
# Type: cell-based
# Conditions: Homo sapiens, HeLa; GI=growth inhibition; read-out: GI50 HELA
# Outline: as §1
row,Compound,GI50 [nM]
1,COc1cc(-c2c3c4cc(OC)c(OC(=O)[C@H](C)N)cc4oc(=O)c3n3ccc4cc(OC(=O)[C@H](C)N)c(OC)cc4c23)ccc1OC(=O)[C@H](C)N [Compound 199],29.9

# Same assay, conditions: Homo sapiens, HeLa; cell killing (cytotoxic effect); read-out: LC50 HELA
row,Compound,CC50 [nM]
1,COc1cc(-c2c3c4cc(OC)c(OC(=O)[C@H](C)N)cc4oc(=O)c3n3ccc4cc(OC(=O)[C@H](C)N)c(OC)cc4c23)ccc1OC(=O)[C@H](C)N [Compound 199],651

# Same assay, conditions: Homo sapiens, HeLa; total growth inhibition (cytostatic effect); read-out: TGI HELA
row,Compound,IC (TGI) [nM]
1,COc1cc(-c2c3c4cc(OC)c(OC(=O)[C@H](C)N)cc4oc(=O)c3n3ccc4cc(OC(=O)[C@H](C)N)c(OC)cc4c23)ccc1OC(=O)[C@H](C)N [Compound 199],199
